According to US20250353898A1, “SERPIN PEPTIDE DERIVATIVES AND METHODS OF USING THE SAME” (priority 2022, published 2025):
“Also recorded” adds a separate entry of the source. Positions of bridges follow the written chain, without caps; N, C: chain ends. Non-standard residues stand in square brackets, D forms with d. No end group written: not given here. Nle = CCCC[C@H](N)C(=O)O; dDap = NC[C@@H](N)C(=O)O; Dap = NC[C@H](N)C(=O)O; Nal = naphthylalanine

Experiments:
[1] = tested on: TNFα; assay: TNFα secretion in IMG microglial cells after LPS (ELISA); assay type: cell-based; conditions: for activity in reducing TNFα activation: A1-A15 screen, 50 or 100 μg/ml, FIG. 5; for activity in reducing TNFα activation / activity in reducing TNFα: LPS 100 ng/ml 24 hours; for activity in reducing TNFα: FIG. 6A/7, up to 50 μg/mL, versus SP163M, SA7; for EC50 TNFα: IMG microglial cells, LPS 100 ng/ml, 24 hours
Procedure: In the NFκB reporter cells, the NFκB inducible Secreted Embryonic Alkaline Phosphatase (SEAP) was measured in the supernatant. TNFα secretion in the supernatant was measured via ELISA.
(§1) Various SERPIN peptide derivatives were screened in vitro for their ability to reduce TNFα and NFκB secretion via LRP-1 activation. The NFκB reporter cells (THP1-XBlue-MD2-CD14 cells) were treated with each peptide derivative at various concentrations, up to 100 μg/ml before being insulted with LPS (5 ng/ml) and incubated overnight. The NFκB inducible Secreted Embryonic Alkaline Phosphatase (SEAP) was measured in the supernatant and read for absorbance. IMG Microglial cells were treated with each peptide derivative at various concentrations, up to 100 μg/ml before LPS (100 ng/ml) stimulation for 24 hours. An ELISA was used to measure TNFα in the supernatant ([…]).

[2] = tested on: NFκB; assay: NFκB reporter assay (SEAP) in THP1-XBlue-MD2-CD14 cells after LPS; assay type: cell-based; conditions: for activity in reducing NFκB activation: LPS 5 ng/ml 24 hours; for EC50 NFκB: NFκB reporter cells, LPS 5 ng/ml; for NFκB inhibition activity: 50 μg/ml, LPS 5 ng/ml overnight, compared to SP163M (and SP22)
Procedure: The NFκB inducible Secreted Embryonic Alkaline Phosphatase (SEAP) was measured in the supernatant and read for absorbance.
as §1

[3] = tested on: IL-6; assay: IL-6 secretion in IMG microglial cells after LPS (ELISA); assay type: cell-based; conditions: for EC50 IL-6: IMG microglial cells, LPS 100 ng/ml, 24 hours
[4] = tested on: NFκB reporter cells or IMG microglial cells; assay: Cytotoxicity assay (CellTiter-Glo Luminescent Cell Viability Assay); conditions: up to 12.5 μg/ml, 24 hours, NFκB reporter cells and IMG microglial cells, FIG. 11
Procedure: IMG cells were treated with peptide derivatives at concentrations at or exceeding those tested for the activity assays (FIGS. 5-7) for 24 hours.

[5] = tested on: OVA induced allergic asthma; assay: OVA induced allergic asthma mouse model, lung homogenate; assay type: in vivo, mice
From the text: Infiltration of immune cells into the lung likely account for the increase in total protein levels in the lung.

[6] = biological target: low-density lipoprotein receptor related protein-1 (LRP-1) on THP1-XBlue-MD2-CD14 NFκB reporter cells (UniProt Q07954 20-4544); assay: cell-based or functional assay
[7] = biological target: low-density lipoprotein receptor related protein-1 (LRP-1) on IMG microglial cells (UniProt Q91ZX7 20-4545, limits assumed); assay: cell-based or functional assay
[8] = biological target: serine protease TMPRSS2 (UniProt O15393 1-492, limits assumed); assay: cell-based or functional assay
[9] = FIG. 6B/7, up to 50 μg/mL, versus SP163M, SA7

low-density lipoprotein receptor related protein-1 (LRP-1) on THP1-XBlue-MD2-CD14 NFκB reporter cells, sequence (Q07954 20-4544 limits assumed): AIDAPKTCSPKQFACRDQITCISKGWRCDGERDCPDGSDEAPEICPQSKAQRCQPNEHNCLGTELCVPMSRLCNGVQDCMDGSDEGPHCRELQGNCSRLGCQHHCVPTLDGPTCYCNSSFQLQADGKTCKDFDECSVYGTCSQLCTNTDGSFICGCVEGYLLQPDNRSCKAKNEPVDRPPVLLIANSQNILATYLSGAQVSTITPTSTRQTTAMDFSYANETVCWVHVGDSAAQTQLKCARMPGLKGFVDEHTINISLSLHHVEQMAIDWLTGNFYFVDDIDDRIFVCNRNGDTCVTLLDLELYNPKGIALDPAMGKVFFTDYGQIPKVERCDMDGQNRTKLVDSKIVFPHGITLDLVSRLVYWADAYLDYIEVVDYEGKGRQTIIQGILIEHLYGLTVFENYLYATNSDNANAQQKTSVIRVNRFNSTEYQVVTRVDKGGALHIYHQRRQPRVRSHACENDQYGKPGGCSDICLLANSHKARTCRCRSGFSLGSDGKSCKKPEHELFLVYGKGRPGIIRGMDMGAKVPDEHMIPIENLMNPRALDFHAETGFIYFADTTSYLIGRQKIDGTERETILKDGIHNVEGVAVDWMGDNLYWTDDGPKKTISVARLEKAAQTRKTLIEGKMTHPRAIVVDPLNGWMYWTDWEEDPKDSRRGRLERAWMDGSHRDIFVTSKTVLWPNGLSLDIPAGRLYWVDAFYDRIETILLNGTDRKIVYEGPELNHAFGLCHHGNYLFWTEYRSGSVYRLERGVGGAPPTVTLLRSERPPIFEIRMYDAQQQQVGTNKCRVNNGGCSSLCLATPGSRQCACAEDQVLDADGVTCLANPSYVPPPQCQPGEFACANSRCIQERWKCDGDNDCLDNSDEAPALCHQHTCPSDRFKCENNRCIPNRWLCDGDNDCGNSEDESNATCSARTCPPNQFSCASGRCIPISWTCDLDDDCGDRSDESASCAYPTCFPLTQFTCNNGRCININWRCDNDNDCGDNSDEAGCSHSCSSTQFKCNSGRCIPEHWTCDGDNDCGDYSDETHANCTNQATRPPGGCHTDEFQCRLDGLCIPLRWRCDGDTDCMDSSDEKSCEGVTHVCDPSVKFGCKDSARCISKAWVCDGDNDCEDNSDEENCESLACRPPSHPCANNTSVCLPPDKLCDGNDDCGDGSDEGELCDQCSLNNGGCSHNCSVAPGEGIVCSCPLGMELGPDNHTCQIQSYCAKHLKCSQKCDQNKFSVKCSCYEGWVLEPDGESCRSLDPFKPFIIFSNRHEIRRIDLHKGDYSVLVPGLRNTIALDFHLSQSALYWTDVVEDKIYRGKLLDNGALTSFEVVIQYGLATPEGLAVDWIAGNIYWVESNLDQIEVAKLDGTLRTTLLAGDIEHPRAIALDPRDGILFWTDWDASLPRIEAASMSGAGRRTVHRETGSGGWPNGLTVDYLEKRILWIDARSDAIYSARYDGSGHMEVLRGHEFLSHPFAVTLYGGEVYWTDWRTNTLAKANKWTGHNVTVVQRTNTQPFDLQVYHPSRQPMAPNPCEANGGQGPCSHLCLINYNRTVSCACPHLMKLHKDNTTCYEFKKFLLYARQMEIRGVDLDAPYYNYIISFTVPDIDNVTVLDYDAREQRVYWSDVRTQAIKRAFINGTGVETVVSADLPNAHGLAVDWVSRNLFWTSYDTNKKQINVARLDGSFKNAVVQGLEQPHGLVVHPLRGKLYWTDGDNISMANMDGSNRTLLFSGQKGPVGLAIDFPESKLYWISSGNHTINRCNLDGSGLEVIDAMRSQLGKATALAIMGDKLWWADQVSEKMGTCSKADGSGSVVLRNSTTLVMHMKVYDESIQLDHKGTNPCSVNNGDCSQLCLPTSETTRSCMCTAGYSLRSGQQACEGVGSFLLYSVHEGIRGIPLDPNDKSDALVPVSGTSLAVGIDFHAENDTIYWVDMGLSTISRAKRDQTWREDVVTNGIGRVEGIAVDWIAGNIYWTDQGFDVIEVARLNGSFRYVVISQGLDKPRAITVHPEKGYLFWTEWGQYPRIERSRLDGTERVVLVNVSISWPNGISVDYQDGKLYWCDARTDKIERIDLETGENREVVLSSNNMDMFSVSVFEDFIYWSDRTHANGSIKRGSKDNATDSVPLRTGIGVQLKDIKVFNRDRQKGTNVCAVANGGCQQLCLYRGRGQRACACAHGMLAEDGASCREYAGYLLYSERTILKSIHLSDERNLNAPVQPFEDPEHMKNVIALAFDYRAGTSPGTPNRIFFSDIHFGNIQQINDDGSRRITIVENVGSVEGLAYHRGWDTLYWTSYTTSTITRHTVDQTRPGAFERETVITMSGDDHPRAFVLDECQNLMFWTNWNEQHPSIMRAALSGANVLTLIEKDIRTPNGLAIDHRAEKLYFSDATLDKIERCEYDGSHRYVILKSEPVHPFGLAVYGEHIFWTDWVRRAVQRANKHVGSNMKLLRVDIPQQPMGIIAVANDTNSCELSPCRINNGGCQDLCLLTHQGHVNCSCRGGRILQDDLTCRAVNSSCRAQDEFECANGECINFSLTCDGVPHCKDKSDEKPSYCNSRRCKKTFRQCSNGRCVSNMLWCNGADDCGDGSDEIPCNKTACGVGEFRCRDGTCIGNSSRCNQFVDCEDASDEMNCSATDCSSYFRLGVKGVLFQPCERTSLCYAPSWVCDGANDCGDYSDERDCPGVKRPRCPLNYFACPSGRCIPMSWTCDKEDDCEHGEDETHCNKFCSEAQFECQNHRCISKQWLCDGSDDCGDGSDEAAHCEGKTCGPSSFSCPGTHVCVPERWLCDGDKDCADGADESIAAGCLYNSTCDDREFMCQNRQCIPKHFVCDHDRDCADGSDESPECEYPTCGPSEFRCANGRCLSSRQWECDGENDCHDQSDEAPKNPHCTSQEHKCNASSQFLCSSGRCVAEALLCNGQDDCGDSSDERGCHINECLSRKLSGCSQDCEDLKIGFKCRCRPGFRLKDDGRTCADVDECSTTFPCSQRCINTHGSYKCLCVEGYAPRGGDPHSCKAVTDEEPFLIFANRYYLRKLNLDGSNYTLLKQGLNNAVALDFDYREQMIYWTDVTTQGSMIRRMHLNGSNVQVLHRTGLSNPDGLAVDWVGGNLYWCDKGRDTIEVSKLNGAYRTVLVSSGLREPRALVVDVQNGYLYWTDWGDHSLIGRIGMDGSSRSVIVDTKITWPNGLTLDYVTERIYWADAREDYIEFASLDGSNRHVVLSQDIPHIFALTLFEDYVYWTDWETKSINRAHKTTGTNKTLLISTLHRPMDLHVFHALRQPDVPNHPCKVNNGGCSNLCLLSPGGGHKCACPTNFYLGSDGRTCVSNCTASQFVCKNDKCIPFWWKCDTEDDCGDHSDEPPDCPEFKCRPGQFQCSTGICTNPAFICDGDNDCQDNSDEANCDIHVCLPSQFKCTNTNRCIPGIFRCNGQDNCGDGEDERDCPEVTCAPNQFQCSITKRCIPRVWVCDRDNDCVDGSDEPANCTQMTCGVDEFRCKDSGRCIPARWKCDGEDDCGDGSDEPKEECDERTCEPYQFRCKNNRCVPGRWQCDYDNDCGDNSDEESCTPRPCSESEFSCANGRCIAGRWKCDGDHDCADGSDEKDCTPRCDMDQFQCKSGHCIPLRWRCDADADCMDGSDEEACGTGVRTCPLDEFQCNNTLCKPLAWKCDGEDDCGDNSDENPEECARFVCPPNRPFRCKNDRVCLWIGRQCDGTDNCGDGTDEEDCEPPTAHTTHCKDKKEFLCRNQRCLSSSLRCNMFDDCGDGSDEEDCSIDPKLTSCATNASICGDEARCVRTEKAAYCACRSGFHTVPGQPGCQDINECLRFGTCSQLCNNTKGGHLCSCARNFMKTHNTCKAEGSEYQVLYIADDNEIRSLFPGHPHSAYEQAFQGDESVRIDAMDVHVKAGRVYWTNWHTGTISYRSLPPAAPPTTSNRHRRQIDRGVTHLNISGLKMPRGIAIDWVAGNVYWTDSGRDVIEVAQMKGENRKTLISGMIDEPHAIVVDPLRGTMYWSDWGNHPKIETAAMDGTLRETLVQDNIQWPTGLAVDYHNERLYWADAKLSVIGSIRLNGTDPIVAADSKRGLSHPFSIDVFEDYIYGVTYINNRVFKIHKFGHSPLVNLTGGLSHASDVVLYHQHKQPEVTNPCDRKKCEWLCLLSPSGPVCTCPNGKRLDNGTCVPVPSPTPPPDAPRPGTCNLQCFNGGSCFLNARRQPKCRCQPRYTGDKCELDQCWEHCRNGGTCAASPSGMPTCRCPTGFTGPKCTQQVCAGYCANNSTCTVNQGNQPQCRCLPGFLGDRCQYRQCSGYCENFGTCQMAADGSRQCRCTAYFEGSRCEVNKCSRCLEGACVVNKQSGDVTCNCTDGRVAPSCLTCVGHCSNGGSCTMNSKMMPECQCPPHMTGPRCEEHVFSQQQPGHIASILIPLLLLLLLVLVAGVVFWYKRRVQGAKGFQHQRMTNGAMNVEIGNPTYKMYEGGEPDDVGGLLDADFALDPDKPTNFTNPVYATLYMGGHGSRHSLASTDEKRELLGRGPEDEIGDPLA
serine protease TMPRSS2, sequence (O15393 whole entry): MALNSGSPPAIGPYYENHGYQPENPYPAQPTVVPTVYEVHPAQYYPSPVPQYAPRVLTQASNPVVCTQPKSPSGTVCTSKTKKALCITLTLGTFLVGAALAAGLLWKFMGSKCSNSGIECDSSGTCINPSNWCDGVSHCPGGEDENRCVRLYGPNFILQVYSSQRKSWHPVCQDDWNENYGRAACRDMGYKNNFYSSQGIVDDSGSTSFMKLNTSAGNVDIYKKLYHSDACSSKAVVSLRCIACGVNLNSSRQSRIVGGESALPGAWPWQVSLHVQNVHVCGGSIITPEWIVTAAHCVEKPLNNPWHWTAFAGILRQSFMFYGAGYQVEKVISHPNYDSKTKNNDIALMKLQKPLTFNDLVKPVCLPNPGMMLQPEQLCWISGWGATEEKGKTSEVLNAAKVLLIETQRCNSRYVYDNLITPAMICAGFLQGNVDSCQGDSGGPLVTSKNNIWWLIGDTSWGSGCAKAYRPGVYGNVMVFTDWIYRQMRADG

Ac- RRRCFV[Nal]L[Nle]C (cyclic) [Peptide A5]
activity in reducing TNFα activation [1]: improved activities in reducing TNFα activation

Ac- RRR[Dap]FT[Nal]L[Nle]D (cyclic) [Peptide A2-1]
activity in reducing NFκB activation [2, 9]: superior activities
EC50 NFκB [2]: 5.77 mg/L
activity in reducing TNFα [1]: superior activities in reducing TNFα
EC50 TNFα [1]: 12.99 mg/L
EC50 IL-6 [3]: 9.644 mg/L

Ac-EEEVKFNKPFVFL[Nle]EEE [SA5]
NFκB inhibition activity [2]: minimal NFκB inhibition activity

Ac-HHHPFVFLMHHH [SA1]
NFκB inhibition activity [2]: minimal NFκB inhibition activity

Ac-HHHPFVFL[Nle]HHH [SA2]
NFκB inhibition activity [2]: minimal NFκB inhibition activity

Ac-KKKPFVFL[Nle]KKK [SA4]
NFκB inhibition activity [2]: minimal NFκB inhibition activity

Ac-RRRCFTFL[Nle]C (also: cyclic (positions not given here)) [Peptide A8]
activity in reducing TNFα activation [1]: improved activities in reducing TNFα activation

Ac-RRRCPFVFL[Nle]CRRR (cysteine pairing not given here) [SA6]
NFκB inhibition activity [2]: improved activity in NFκB inhibition

Ac-RRRDFVFL[Nle][Dap] (also: cyclic (positions not given here)) [Peptide A10]
activity in reducing TNFα activation [1]: improved activities in reducing TNFα activation

Ac-RRRPFVFL[Nle]RRR [SA3]
NFκB inhibition activity [2]: improved activity in NFκB inhibition; also recorded: more effective in reducing NFκB activation

HN- RRRAT[Nal]L[NIe]D (cyclic) [Peptide A3-14]
activity in reducing NFκB activation ([2]; FIG. 9, 1.56 to 12.5 μg/ml): superior activities in reducing NFκB activation
EC50 NFκB [2]: 3.775 mg/L
EC50 TNFα [1]: 6 mg/L
activity in reducing IL-6 secretion ([3]; FIG. 10, up to 12.5 μg/ml, LPS 100 ng/ml 24 hours): superior activities in reducing IL-6 secretion
EC50 IL-6 [3]: 0.605 mg/L
cytotoxic effects [4]: no cytotoxic effects

HN- RRRFTWL[dS]D (cyclic) (not fully specified (bridges); printed as HN- RRRFTWL[dS]D (cyclic); also: cyclic, mode of cyclisation not given here) [Peptide A3-16]
cytotoxic effects [4]: no cytotoxic effects

HN- RRRFT[Nal]L[dS]D (cyclic) [Peptide A3-15]
cytotoxic effects [4]: no cytotoxic effects

HN- RRRFT[Nal]]LD (cyclic) (cyclo(RRRFT[Nal]LD)) [Peptide A3-1]
cytotoxic effects [4]: no cytotoxic effects

HN- RRRFVFL[dDap]D (cyclic) (not fully specified (bridges); printed as HN- RRRFVFL[dDap]D (cyclic); also: cyclic, ring not given here) [Peptide A3-10]
activity in reducing NFκB activation ([2]; FIG. 9, 1.56 to 12.5 μg/ml): superior activities in reducing NFκB activation

HN- [rK]RRFT[Nal]]LD (cyclic) ([rK]RRFT[Nal]LD; lactam 1-8) [Peptide A3-2]
cytotoxic effects [4]: no cytotoxic effects

HN-RRRFT[Nal]L[Nle]D (cyclic) [Peptide A2-2]
activity in reducing NFκB activation [2, 9]: superior activities
activity in reducing TNFα [1]: superior activities in reducing TNFα

HN-RRRFVFLD (cyclic) (not fully specified; cyclised or stapled) [Peptide A2-4]
activity in reducing NFκB activation [2, 9]: superior activities
activity in reducing TNFα [1]: superior activities in reducing TNFα

HN-RRRFVFL[Nle]D (cyclic) [Peptide A15]
EC50 NFκB [2]: 5.053 mg/L
activity in reducing TNFα activation [1]: improved activities in reducing TNFα activation
EC50 TNFα [1]: 36.75 mg/L
EC50 IL-6 [3]: 32.39 mg/L

HN-RRRFVFL[dS]D (cyclic) (RRRFVFLSD; not fully specified; D-residues; cyclised or stapled) [Peptide A2-5]
activity in reducing NFκB activation [2, 9]: superior activities
activity in reducing TNFα [1]: superior activities in reducing TNFα
TSLP level in lung homogenate ([5]; compared to ova-induced vehicle treated mice, p=0.026): significantly lower levels of TSLP
total protein levels in the lung ([5]; compared to vehicle treated animals, p<0.005): significantly decreased
TH-2 mediated cytokines IL-5, IL-4 and IL-13 in lung tissue ([5]; compared with vehicle treated mice): reduction of TH-2 mediated cytokines IL-5, IL-4 and IL-13

RRRFVFLD (not fully specified; cyclic (HN- at the N-terminus (so in the source))) [SERPIN peptide derivative A2-4, HN-RRRFVFLD (cyclic)]
EC50, NFκB (reduction of NFκB activation, SEAP reporter cells, LPS) [6]: 5.25 mg/L
EC50, IL-6 (IMG microglial cells, LPS, ELISA) [7]: 11.3 mg/L
EC50, TNFα (IMG microglial cells, LPS, ELISA) [7]: 12.5 mg/L

Ac-RRRKFT[Nal]LD (lactam 4-9) [SERPIN peptide derivative A3-7, Ac-RRRKFT[Nal]LD (cyclic)]
EC50, NFκB (reduction of NFκB activation, SEAP reporter cells, LPS) [6]: 22.4 mg/L
EC50, IL-6 (IMG microglial cells, LPS, ELISA) [7]: 3.65 mg/L

B1: SERPIN peptide derivative A2-5, HN-RRRFVFL[dS]D (cyclic) (peptide)
peptide: RRRFVFLSD
modifications: not fully specified; D-Ser at position 8; cyclic (HN- at the N-terminus (so in the source))
EC50, NFκB (reduction of NFκB activation, SEAP reporter cells, LPS) [6]: 1.47 mg/L
EC50, IL-6 (IMG microglial cells, LPS, ELISA) [7]: 1.4 mg/L
EC50, TNFα (IMG microglial cells, LPS, ELISA) [7]: 2.39 mg/L

RRRFVFLAD (not fully specified; cyclic (HN- at the N-terminus (so in the source))) [SERPIN peptide derivative A2-3, HN-RRRFVFLAD (cyclic)]
EC50, NFκB (reduction of NFκB activation, SEAP reporter cells, LPS) [6]: 2.65 mg/L
EC50, IL-6 (IMG microglial cells, LPS, ELISA) [7]: 3.38 mg/L
EC50, TNFα (IMG microglial cells, LPS, ELISA) [7]: 11.8 mg/L

Ac-RRR[Dap]FT[Nal]L[Nle]D [SERPIN peptide derivative A2-1, Ac-RRR[Dap]FT[Nal]L[Nle]D (cyclic)]
EC50, NFκB (reduction of NFκB activation, SEAP reporter cells, LPS) [6]: 5.77 mg/L
EC50, IL-6 (IMG microglial cells, LPS, ELISA) [7]: 9.64 mg/L
EC50, TNFα (IMG microglial cells, LPS, ELISA) [7]: 13 mg/L

B2: SERPIN peptide derivative A3-10, HN-RRRFVFL[dDap]D (cyclic) (peptide)
peptide: RRRFVFLXD
modifications: not fully specified; D-Dap at position 8; cyclic (HN- at the N-terminus (so in the source))
EC50, NFκB (reduction of NFκB activation, SEAP reporter cells, LPS) [6]: 2.16 mg/L
EC50, IL-6 (IMG microglial cells, LPS, ELISA) [7]: 58.5 mg/L
EC50, TNFα (IMG microglial cells, LPS, ELISA) [7]: 34.6 mg/L

VKFNKPFVFLMIEQNTK [SERPIN peptide SP16 (VKFNKPFVFLMIEQNTK)]
EC50, NFκB (reduction of NFκB activation, SEAP reporter cells, LPS) [6]: 152 mg/L
EC50, TNFα (IMG microglial cells, LPS, ELISA) [7]: ~618 mg/L

B3: SERPIN peptide derivative A15, HN-RRRFVFL[Nle]D (cyclic) (peptide)
peptide: RRRFVFLXD
modifications: not fully specified; Nle (norleucine) at position 8; cyclic: head-to-tail linker between the amino group of the N-terminal Arg and the side-chain carboxylic acid of the C-terminal Asp, ring closing length 12 C-C bonds
EC50, NFκB (reduction of NFκB activation, SEAP reporter cells, LPS) [6]: 5.05 mg/L
EC50, IL-6 (IMG microglial cells, LPS, ELISA) [7]: 32.4 mg/L
EC50, TNFα (IMG microglial cells, LPS, ELISA) [7]: 36.8 mg/L

Ac-RRRCPFVFL[Nle]C (disulfide 4-11 (inferred)) [SERPIN peptide derivative SA7, Ac-RRRCPFVFL[Nle]C (cyclic)]
IC50, protease TMPRSS2 activity in an overexpressing cell system [8]: 0.083 mg/L
EC50, NFκB (reduction of NFκB activation, SEAP reporter cells, LPS) [6]: 470 mg/L
EC50, IL-6 (IMG microglial cells, LPS, ELISA) [7]: 318 mg/L
EC50, TNFα (IMG microglial cells, LPS, ELISA) [7]: 124 mg/L

B4: SERPIN peptide derivative A3-14, HN-RRRAT[Nal]L[Nle]D (cyclic) (peptide)
peptide: RRRAT[Nal]L[Nle]D
modifications: not fully specified (bridges); printed as HN- RRRAT[Nal]L[NIe]D (cyclic); also: cyclic, ring not given here
EC50, NFκB (reduction of NFκB activation, SEAP reporter cells, LPS) [6]: 3.77 mg/L
EC50, IL-6 (IMG microglial cells, LPS, ELISA) [7]: 0.605 mg/L
EC50, TNFα (IMG microglial cells, LPS, ELISA) [7]: 6 mg/L
